Assay results as given in patent publication US20090143279A1 (priority 2007, published 2009).
“And” between values parts separate entries of the source, which are not always exact repeats. Equal values may be shown once. Read-outs that look alike come from different tables or passages of the source. Where a SMILES comes first, the peptide text is derived from it.

How the values were obtained:
reactive oxygen species = assay type: cell-based, mouse
cytochrome c = assay type: cell-based, mouse
[1] = composite Z-score vs mock-treated (DMSO) wells, concentration of each compound in μM
[2] = normalized score (composite Z-score vs DMSO mock-treated wells), compound concentration (μM)

cytochrome c, sequence (P62897 whole entry): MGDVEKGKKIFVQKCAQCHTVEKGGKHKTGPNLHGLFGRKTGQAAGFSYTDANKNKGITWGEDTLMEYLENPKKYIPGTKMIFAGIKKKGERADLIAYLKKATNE

Compound: CC1(C)S[C@@H]2[C@H](NC(=O)[C@H](N)c3ccc(O)cc3)C(=O)N2[C@H]1C(=O)O [amoxicillin]
- ROS (reactive oxygen species): 1.061

Compound: CN(C)CCCN1c2ccccc2CCc2ccc(Cl)cc21 [clomipramine]
- ROS (reactive oxygen species): 0.466

Compound: COc1ccc([C@H]2COc3c(ccc(O)c3OC)C2)c(OC)c1O [duartin(−), reference compound]
- ROS (reactive oxygen species; Table 4, C2C12 myotubes, 48 h, composite Z-score): 0.900

Compound: [H]/N=C(/N)N/C(=N/[H])NCCc1ccccc1 [phenformin]
- cyt c (cytochrome c): 0.241

Compound: N[C@@H](Cc1ccccc1)C(=O)N[C@@H](Cc1ccc(O)cc1)C(=O)O [phenylalanyltyrosine] (H-Phe-Tyr-OH)
- cyt c (cytochrome c; [1]): −0.342

Compound: CC(N)C(O)c1ccccc1 (stereo not shown) [phenylpropanolamine]
- cyt c (cytochrome c): 0.947

Compound: CCc1ccc(CCOc2ccc(CC3SC(=O)NC3=O)cc2)nc1 (stereo not shown) [pioglitazone]
- cyt c (cytochrome c; [1]): −0.742

Compound: CC[C@H](C)C(=O)O[C@H]1C[C@H](O)C=C2C=C[C@H](C)[C@H](CC[C@@H](O)C[C@@H](O)CC(=O)O)[C@H]21 [pravastatin, reference compound]
- cyt c (cytochrome c; [1]): 0.972

Compound: CCC1(c2ccccc2)C(=O)NCNC1=O [primidone]
- cyt c (cytochrome c): 0.296 and 0.193

Compound: CCC(NC(C)C)C(O)c1ccc(O)c2[nH]c(=O)ccc12 (stereo not shown) [procaterol]
- cyt c (cytochrome c; [1]): −0.168

Compound: CCC(=O)c1ccc2c(c1)N(CC(C)N(C)C)c1ccccc1S2 (stereo not shown) [propiomazine]
- cyt c (cytochrome c): −0.368

Compound: CC(C)c1cccc(C(C)C)c1O [propofol]
- cyt c (composite Z-score vs DMSO) (cytochrome c): 0.242

Compound: CCCc1cc(=O)[nH]c(=S)[nH]1 [propylthiouracil]
- cyt c (cytochrome c): 0.762 and 0.717

Compound: CNCCCC1c2ccccc2C=Cc2ccccc21 [protriptyline]
- cyt c (composite Z-score) (cytochrome c): −1.335

Compound: CC(O)Cn1cnc2c1c(=O)n(C)c(=O)n2C (stereo not shown) [proxyphylline]
- cyt c (cytochrome c; [1]): −0.574

Compound: CC(=O)SCC(Cc1ccccc1)C(=O)NCC(=O)OCc1ccccc1 (stereo not shown) [racecadotril]
- cyt c (cytochrome c; [1]): −0.249

Compound: O=C(NC(Cc1cc(=O)[nH]c2ccccc12)C(=O)O)c1ccc(Cl)cc1 (stereo not shown) [rebamipide]
- cyt c (cytochrome c; [1]): −0.372

Compound: NC(=O)c1ncn([C@@H]2O[C@H](CO)[C@@H](O)[C@H]2O)n1 [ribavirin]
- cyt c (cytochrome c): −0.336

Compound: CO[C@H]1/C=C/O[C@@]2(C)Oc3c(C)c(O)c4c(O)c(c(/C=N/N5CCN(C)CC5)c(O)c4c3C2=O)NC(=O)/C(C)=C\C=C\[C@H](C)[C@H](O)[C@@H](C)[C@@H](O)[C@@H](C)[C@H](OC(C)=O)[C@@H]1C [rifampicin]
- cyt c (cytochrome c): 0.319

Compound: CO[C@H]1/C=C/O[C@@]2(C)Oc3c(C)c(O)c4c(O)c(c5c(nc6cc(C)ccn65)c4c3C2=O)NC(=O)/C(C)=C\C=C\[C@H](C)[C@H](O)[C@@H](C)[C@@H](O)[C@@H](C)[C@H](OC(C)=O)[C@@H]1C [rifaximin]
- cyt c (cytochrome c; [1]): −0.471

Compound: Cc1nc2n(c(=O)c1CCN1CCC(c3noc4cc(F)ccc34)CC1)CCCC2 [risperidone]
- cyt c (composite Z-score vs DMSO) (cytochrome c): 0.243

Compound: CC(NCCc1ccc(O)cc1)C(O)c1ccc(O)cc1 (stereo not shown) [ritodrine]
- cyt c (cytochrome c; [1]): −0.072

Compound: CN(CCOc1ccc(CC2SC(=O)NC2=O)cc1)c1ccccn1 (stereo not shown) [rosiglitazone]
- cyt c (cytochrome c): −0.121

Compound: C[C@@H]1O[C@@H](OC[C@H]2O[C@@H](Oc3c(-c4ccc(O)c(O)c4)oc4cc(O)cc(O)c4c3=O)[C@H](O)[C@@H](O)[C@@H]2O)[C@H](O)[C@H](O)[C@H]1O [rutoside]
- cyt c (cytochrome c; [1]): −0.012

Compound: O=C1NS(=O)(=O)c2ccccc21 [saccharin]
- cyt c (composite Z-score vs DMSO) (cytochrome c): 0.336

Compound: O=C(O)c1cn(-c2ccc(F)cc2)c2cc(N3CCNCC3)c(F)cc2c1=O [sarafloxacin]
- cyt c (cytochrome c; [1]): 0.290

Compound: O=C1C=C2C=C[C@@H]3C[C@@]2(O1)[C@H]1CCCCN31 [securinine]
- cyt c (cytochrome c; [1]): −0.481

Compound: CO[C@H]1C[C@H](O[C@@H]2/C(C)=C/C[C@@H]3C[C@@H](C[C@]4(CC[C@H](C)[C@@H](C5CCCCC5)O4)O3)OC(=O)[C@@H]3C=C(C)/C(=N/O)[C@H]4OC/C(=C\C=C\[C@@H]2C)[C@]43O)O[C@@H](C)[C@@H]1O [selamectin]
- cyt c (cytochrome c): 0.343

Compound: CC(C)CC(N(C)C)C1(c2ccc(Cl)cc2)CCC1 (stereo not shown) [sibutramine]
- cyt c (cytochrome c; [1]): 0.351

Compound: COc1cc(C2Oc3cc([C@H]4Oc5cc(O)cc(O)c5C(=O)[C@@H]4O)ccc3OC2CO)ccc1O (stereo partly shown) [silybin]
- cyt c (cytochrome c): 0.150

Compound: O=C([O-])c1ccccc1O.[Na+] [sodium salicylate]
- cyt c (cytochrome c): 0.607

Compound: CC(C)NCC(O)c1ccc(NS(C)(=O)=O)cc1 (stereo not shown) [sotalol]
- cyt c (cytochrome c; [1]): 0.501

Compound: O=C1C[C@@H]2OCC=C3CN4CC[C@]56c7ccccc7N1[C@H]5[C@H]2[C@H]3C[C@H]46 [strychnine]
- cyt c (composite Z-score vs DMSO mock-treated wells) (cytochrome c): 0.031

Compound: CCOC(=O)Oc1c(OC)cc(C(=O)O[C@@H]2C[C@@H]3CN4CCc5c([nH]c6cc(OC)ccc56)[C@H]4C[C@@H]3[C@H](C(=O)OC)[C@H]2OC)cc1OC [syrosingopine]
- cyt c (cytochrome c; [2]): 1.051

Compound: Nc1c2c(nc3ccccc13)CCCC2 [tacrine]
- cyt c (composite Z-score vs DMSO) (cytochrome c): −0.250

Compound: CC[C@H]1OC(=O)[C@H](C)C(=O)[C@H](C)[C@@H](O[C@@H]2O[C@H](C)C[C@H](N(C)C)[C@H]2O)[C@](C)(OC)C[C@@H](C)C(=O)[C@H](C)[C@H]2N(CCCCn3cnc(-c4cccnc4)c3)C(=O)O[C@]12C [telithromycin]
- cyt c (cytochrome c; [1]): −0.023

Compound: CCCc1nc2c(C)cc(-c3nc4ccccc4n3C)cc2n1Cc1ccc(-c2ccccc2C(=O)O)cc1 [telmisartan]
- cyt c (cytochrome c; [1]): −0.044

Compound: COc1cc2nc(N3CCN(C(=O)C4CCCO4)CC3)nc(N)c2cc1OC (stereo not shown) [terazosin]
- cyt c (composite Z-score vs DMSO) (cytochrome c): −0.258

Compound: CC(C)N1CCN(c2ccc(OCC3COC(Cn4cncn4)(c4ccc(Cl)cc4Cl)O3)cc2)CC1 (stereo not shown) [terconazole]
- cyt c (cytochrome c; [1]): 0.552

Compound: CC(C)(C)c1ccc(C(O)CCCN2CCC(C(O)(c3ccccc3)c3ccccc3)CC2)cc1 (stereo not shown) [terfenadine]
- cyt c (composite Z-score vs DMSO) (cytochrome c): −0.611

Compound: C[C@]12CC[C@H]3[C@@H](CCC4=CC(=O)CC[C@@]43C)[C@@H]1CC[C@@H]2O [testosterone]
- cyt c (cytochrome c): −0.787

Compound: COC(=O)C1=CO[C@@H](C)[C@@H]2CN3CCc4c([nH]c5ccccc45)[C@@H]3C[C@H]12 [tetrahydroalstonine]
- cyt c (cytochrome c; [1]): 1.439

Compound: c1ccc(C2CN3CCSC3=N2)cc1 (stereo not shown) [tetramisole]
- cyt c (cytochrome c): 0.209

Compound: Cc1ncc(C[n+]2csc(CCO)c2C)c(N)n1 [thiamine]
- cyt c (composite Z-score) (cytochrome c): 0.284

Compound: COc1c(O[C@@H]2O[C@H](CO)[C@@H](O)[C@H](O)[C@H]2O)cc2c(c1OC)-c1ccc(SC)c(=O)cc1[C@@H](NC(C)=O)CC2 [thiocolchicoside]
- cyt c (cytochrome c; [1]): 0.108

Compound: Nc1nc2nc[nH]c2c(=S)[nH]1 [thioguanine]
- cyt c (composite Z-score vs DMSO) (cytochrome c): −1.454

Compound: CCCC(C)C1(CC)C(=O)NC(=S)NC1=O (stereo not shown) [thiopental]
- cyt c (composite Z-score vs DMSO) (cytochrome c): −0.299

Compound: C=C(NC(=O)C(=C)NC(=O)c1csc(C2=N[C@@H]3c4csc(n4)[C@H]4NC(=O)c5csc(n5)[C@H]([C@](C)(O)[C@@H](C)O)NC(=O)[C@H]5CSC(=N5)/C(=C/C)NC(=O)[C@H]([C@@H](C)O)NC(=O)c5csc(n5)[C@]3(CC2)NC(=O)[C@H](C)NC(=O)C(=C)NC(=O)[C@H](C)NC(=O)[C@H]([C@@H](C)CC)N[C@@H]2C=Cc3c([C@H](C)O)cc(nc3[C@H]2O)C(=O)O[C@@H]4C)n1)C(N)=O [thiostrepton]
- cyt c (cytochrome c; [1]): −1.134

Compound: CN1CCN(CC/C=C2/c3ccccc3Sc3ccc(S(=O)(=O)N(C)C)cc32)CC1 [thiothixene]
- cyt c (cytochrome c): 0.307

Compound: CC(C(=O)O)c1ccc(C(=O)c2ccccc2)s1 (stereo not shown) [tiaprofenic acid]
- cyt c (cytochrome c; [2]): 0.644

Compound: Clc1ccccc1CN1CCc2sccc2C1 [ticlopidine]
- cyt c (composite Z-score vs DMSO) (cytochrome c): −0.316

Compound: Cc1ccc(O)c([C@H](CCN(C(C)C)C(C)C)c2ccccc2)c1 [tolterodine]
- cyt c (cytochrome c): −0.406

Compound: CC1(C)O[C@@H]2[C@@H](CO[C@@]3(COS(N)(=O)=O)OC(C)(C)O[C@@H]23)O1 [topiramate]
- cyt c (cytochrome c; [1]): −0.093

Compound: CCOC(=O)[C@H](CCc1ccccc1)N[C@@H](C)C(=O)N1[C@H](C(=O)O)C[C@H]2CCCC[C@@H]21 [trandolapril]
- cyt c (cytochrome c): 0.039

Compound: O=c1n(CCCN2CCN(c3cccc(Cl)c3)CC2)nc2ccccn12 [trazodone]
- cyt c (composite Z-score vs DMSO) (cytochrome c): 0.028 and 0.038

Compound: CC(C)(C)C(=O)C(Oc1ccc(Cl)cc1)n1cncn1 (stereo not shown) [triadimefon]
- cyt c (cytochrome c): 0.286

Compound: C[C@]12C=CC(=O)C=C1CC[C@H]1[C@@H]3C[C@@H](O)[C@](O)(C(=O)CO)[C@@]3(C)C[C@H](O)[C@@]12F [triamcinolone]
- cyt c (cytochrome c): −1.483
- cyt c (composite Z-score vs DMSO) (cytochrome c): 0.087

Compound: C[n+]1cccc(C(=O)[O-])c1 [trigonelline]
- cyt c (composite Z-score) (cytochrome c): −0.072

Compound: C[C@@H]1O[C@@H](OC[C@H]2O[C@@H](Oc3c(-c4ccc(OCCO)c(OCCO)c4)oc4cc(OCCO)cc(O)c4c3=O)[C@H](O)[C@@H](O)[C@@H]2O)[C@H](O)[C@H](O)[C@H]1O [troxerutin]
- cyt c (cytochrome c; [1]): −0.673

Compound: COc1cc2c3cc1Oc1cc(ccc1O)C[C@@H]1c4c(cc(OC)c(O)c4Oc4ccc(cc4)C[C@@H]3N(C)CC2)CC[N+]1(C)C [tubocurarine]
- cyt c (cytochrome c; [1]): 1.117

Compound: CC[C@H]1OC(=O)C[C@@H](O)[C@H](C)[C@@H](O[C@@H]2O[C@H](C)[C@@H](O[C@H]3C[C@@](C)(O)[C@@H](O)[C@H](C)O3)[C@H](N(C)C)[C@H]2O)[C@@H](CC=O)C[C@@H](C)C(=O)/C=C/C(C)=C/[C@@H]1CO[C@@H]1O[C@H](C)[C@@H](O)[C@@H](OC)[C@H]1OC [tylosin]
- cyt c (cytochrome c; [1]): −0.007

Compound: O=c1ccc2ccc(O)cc2o1 [umbelliferone]
- cyt c (composite Z-score) (cytochrome c): −0.272

Compound: CC(C)[C@H](N)C(=O)N[C@@H](Cc1c[nH]c2ccccc12)C(=O)O [valyltryptophan] (H-Val-Trp-OH)
- cyt c (cytochrome c; [1]): −0.626

Compound: COc1ccc(C(CN(C)C)C2(O)CCCCC2)cc1 (stereo not shown) [venlafaxine]
- cyt c (cytochrome c; [1]): 0.627

Compound: CC(=O)CC(c1ccccc1)c1c(O)c2ccccc2oc1=O (stereo not shown) [warfarin]
- cyt c (cytochrome c): 0.267

Compound: C[C@H]1CCCC(=O)CCC/C=C/c2cc(O)cc(O)c2C(=O)O1 [zearalenone]
- cyt c (cytochrome c; [1]): −0.185

Compound: Cc1cn([C@H]2C[C@H](N=[N+]=[N-])[C@@H](CO)O2)c(=O)[nH]c1=O [zidovudine]
- cyt c (cytochrome c): 0.611
- cyt c (composite Z-score vs DMSO mock-treated wells) (cytochrome c): 0.637

Compound: catechin hydrate [reference compound]
- cyt c (cytochrome c): 1.085
